Common to all, as to assay type: biochemical
The target in test [1] is T1, PDGFR-β kinase (Homo sapiens, UniProt P09619).
T1 construct: recombinant N-terminal 6×His-tagged PDGFR-β kinase domain construct expressed by baculovirus; 6xHis (N); made in house
Description: PDGFR-β kinase assay (33P incorporation into Poly(Glu-Tyr)). The conditions noted are these: 500 nM test compound. Here is the method: Inhibition of PDGFR-β kinase activity by compounds disclosed herein was quantified by measuring the amount of [^33P] incorporated into the substrate in the presence of a test compound. Briefly, a reaction mixture of 25 μL final volume containing 55 ng of PDGFR-β kinase (obtained by purifying recombinant N-terminal 6×His-tagged PDGFR-β kinase domain construct expressed by baculovirus), 2.5 μg of the substrate (Poly (Glu-Tyr, 4:1, Sigma)), kinase reaction buffer (20 mM MOPS pH 7.0, 1 mM EDTA, 5% glycerol, 0.01% Brij-35, 0.1% β-mercaptoethanol, 1 mg/mL BSA, 2 mM MnCl2, 30 μM ATP, 0.1 μCi per well [^33P]-γ-ATP (2,500-3,000 Ci/mmol)), and a test compound (500 nM, diluted with 4% DMSO) or DMSO (as the control) was incubated at 30° C. for 30 minutes. The reaction was stopped by adding 5 μL of 3% phosphoric acid solution. The resultant reaction solution was then harvested onto a filter plate (UniFilter-96 GF/B, PerkinElmer), washed 20 times for 5 min with d.d. H2O, and followed by the addition of 30 μL of MicroScint™-20 Cocktail (PerkinElmer). The plate was then sealed and counted using a TopCount scintillation detector (PerkinElmer). The percentage of inhibition rate of the test compound was calculated by dividing the retained radioactivity of the test sample with the retained radioactivity of the control sample and shown in Table 3.

Test [2] concerns the target T2, c-Met kinase (Homo sapiens, UniProt P08581).
T2 construct: recombinant N-terminal 6×His-tagged c-Met kinase domain construct expressed from baculovirus; 6xHis (N); made in house
Description: c-Met kinase assay (33P incorporation into Poly(Glu-Tyr)). The conditions noted are these: 500 nM test compound. A digest of the protocol:
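Recombinant N-terminal 6×His-tagged c-Met kinase domain (baculovirus-expressed, 5 ng) acted on Poly(Glu-Tyr) 4:1 with 100 μM ATP plus [33P]-γ-ATP in MOPS pH 7.0 buffer, 30 min at 30° C. Compound was at 500 nM. Filter-retained radioactivity was compared with the DMSO control to give percent inhibition.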

Test [3] concerns the target T3, Aurora B kinase (Homo sapiens, UniProt Q96GD4).
T3 construct: purchased Cell signaling
Description: Aurora B kinase assay ([γ-33P]ATP, CHOCKtide substrate). As to conditions: for inhibition at 1 µM: 1.0 μM test compound. A digest of the protocol: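 Recombinant Aurora A (1 ng) or Aurora B (2.5 ng) incubated with test compound, CHOCKtide (1 μg) and [γ-33P]ATP/ATP at 10 μM (Aurora A) or 40 μM (Aurora B), 30 min at 33 °C. Stopped with phosphoric acid; filter-bound 33P counted; IC50 = half-maximal inhibition.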

Test [4] concerns the target T4, Flt3 kinase (Homo sapiens, UniProt P36888).
T4 construct: recombinant N-terminal 6×His-tagged Flt3 kinase domain construct expressed from baculovirus; 6xHis (N); made in house
T4 sequence (P36888 610-943 limits assumed): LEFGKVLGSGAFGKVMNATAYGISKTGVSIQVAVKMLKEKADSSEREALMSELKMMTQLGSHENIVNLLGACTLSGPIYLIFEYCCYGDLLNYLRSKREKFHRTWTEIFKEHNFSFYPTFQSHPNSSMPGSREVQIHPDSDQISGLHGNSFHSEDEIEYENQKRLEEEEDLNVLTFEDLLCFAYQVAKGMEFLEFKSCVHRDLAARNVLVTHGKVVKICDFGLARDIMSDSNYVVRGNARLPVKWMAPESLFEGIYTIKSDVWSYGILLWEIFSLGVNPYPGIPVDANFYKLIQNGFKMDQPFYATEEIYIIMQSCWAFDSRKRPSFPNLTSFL
Description: Flt3 kinase assay (33P incorporation into Poly(Glu-Tyr)). As to conditions: 100 nM test compound; read-out: Inhibition at 100 nM (%) Flt-3. Here is the method:
Inhibition of Flt3 kinase activity by compounds disclosed herein was quantified by measuring the amount of [^33P] incorporated into the substrate in the presence of a test compound. Briefly, a reaction mixture of 25 μL final volume containing 5 ng of Flt3 kinase (obtained by purifying recombinant N-terminal 6×His-tagged Flt3 kinase domain construct expressed from baculovirus), 5 μg of the substrate (Poly (Glu-Tyr, 4:1, Sigma)), kinase reaction buffer (20 mM MOPS pH 7.0, 1 mM EDTA, 5% glycerol, 0.01% Brij-35, 0.1% β-mercaptoethanol, 1 mg/mL BSA, 100 μM ATP, 0.1 μCi per well [^33P]-γ-ATP (2,500-3,000 Ci/mmol)), and a test compound (100 nM, diluted with 4% DMSO) or DMSO (as the control) was incubated at 30° C. for 30 minutes. The reaction was stopped by adding 5 μL of 3% phosphoric acid solution. The resultant reaction solution was then harvested onto a filter plate (UniFilter-96 GF/B, PerkinElmer), washed 20 times for 5 min with d.d. H2O, and followed by the addition of 30 μL of MicroScint™-20 Cocktail (PerkinElmer). The plate was then sealed and counted using a TopCount scintillation detector (PerkinElmer). The percentage of inhibition rate of the test compound was calculated by dividing the retained radioactivity of the test sample with the retained radioactivity of the control sample and shown in Table 3.

Results on 14 compounds are retold here after patent US7897602B2, “Indolinone compounds as kinase inhibitors” (Development Center for Biotechnology, priority 2009, dated 2011).

Each structure is given as a SMILES string.

T3 sequence (Q96GD4 whole entry): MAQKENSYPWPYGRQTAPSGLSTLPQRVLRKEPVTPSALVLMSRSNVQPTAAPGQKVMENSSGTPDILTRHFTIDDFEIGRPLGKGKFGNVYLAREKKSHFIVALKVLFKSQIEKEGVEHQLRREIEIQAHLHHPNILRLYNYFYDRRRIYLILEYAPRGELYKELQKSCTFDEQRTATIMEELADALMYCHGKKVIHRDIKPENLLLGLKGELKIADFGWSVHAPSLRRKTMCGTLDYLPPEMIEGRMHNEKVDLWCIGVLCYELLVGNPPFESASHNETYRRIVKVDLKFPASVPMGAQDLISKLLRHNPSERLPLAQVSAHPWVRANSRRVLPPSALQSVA
T2 sequence (P08581 1078-1345 limits assumed): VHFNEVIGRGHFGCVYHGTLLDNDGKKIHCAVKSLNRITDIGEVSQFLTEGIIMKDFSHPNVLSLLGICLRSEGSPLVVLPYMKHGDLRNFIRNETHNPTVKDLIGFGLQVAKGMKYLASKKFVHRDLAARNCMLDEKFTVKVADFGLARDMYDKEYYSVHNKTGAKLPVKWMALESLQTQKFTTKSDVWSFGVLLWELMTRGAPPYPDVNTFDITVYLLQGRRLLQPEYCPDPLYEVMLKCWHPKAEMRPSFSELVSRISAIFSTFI
T1 sequence (P09619 600-962 limits assumed): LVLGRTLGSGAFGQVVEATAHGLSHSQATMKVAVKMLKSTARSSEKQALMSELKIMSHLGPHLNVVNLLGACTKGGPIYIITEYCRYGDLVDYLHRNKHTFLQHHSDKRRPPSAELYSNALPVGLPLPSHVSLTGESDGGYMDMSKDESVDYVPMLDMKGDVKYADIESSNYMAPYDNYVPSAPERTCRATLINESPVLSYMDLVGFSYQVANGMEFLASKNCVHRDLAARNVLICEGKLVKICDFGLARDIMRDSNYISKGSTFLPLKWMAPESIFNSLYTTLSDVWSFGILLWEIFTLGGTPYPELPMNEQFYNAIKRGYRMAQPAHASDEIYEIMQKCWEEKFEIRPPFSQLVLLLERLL

For orientation: inhibition means the relative decrease from the control value, in per cent. For `COc1ccc(-c2ccc3c(c2)/C(=C/c2[nH]c4c(c2CCC(=O)O)C(=O)CCC4)C(=O)N3)cc1OC` [DCB-70068, (Z)-5-(3,4-dimethoxyphenyl)-3-((3-carboxyethyl-4-oxo-4,5,6,7-tetrahydro-1H-indol-2-yl)methylene)indolin-2-one], the inhibition at 0.5 µM in test [1] was found to be 20.6%; in test [2] it was 18%. In test [3], the inhibition at 1 µM worked out at 5.1%. Moreover, the inhibition at 0.1 µM in test [4] turned out to be 15.6%.
For `CCOC(=O)CCc1c(/C=C2\C(=O)Nc3ccc(-c4cc5ccccc5s4)cc32)[nH]c2c1C(=O)CCC2` [DCB-70069, (Z)-5-(benzo[b]thiophen-2-yl)-3-((3-(3-ethoxy-3-oxopropyl)-4-oxo-4,5,6,7-tetrahydro-1H-indol-2-yl)methylene)indolin-2-one], in that order: 6.8%, -38%, -2.6% and 9.6%.
For `O=C(O)CCc1c(/C=C2\C(=O)Nc3ccc(-c4cc5ccccc5s4)cc32)[nH]c2c1C(=O)CCC2` [DCB-70070, (Z)-5-(benzo[b]thiophen-2-yl)-3-((3-carboxyethyl-4-oxo-4,5,6,7-tetrahydro-1H-indol-2-yl)methylene)indolin-2-one], in that order: 18.7%, 19.7%, -2.7% and 13.3%.
For `O=C(O)CCc1c(/C=C2\C(=O)Nc3ccc(S(=O)(=O)Cc4ccccc4)cc32)[nH]c2c1C(=O)CCC2` [DCB-70071, (Z)-5-benzylsulfonyl-3-((3-carboxyethyl-4-oxo-4,5,6,7-tetrahydro-1H-indol-2-yl)methylene)indolin-2-one], in that order: 43.1%, 65.3%, 11.2% and 21.2%.
For `O=C(O)CCc1c(/C=C2\C(=O)Nc3ccc(S(=O)(=O)Cc4ccc(F)cc4)cc32)[nH]c2c1C(=O)CCC2` [DCB-70072, (Z)-5-(4-fluorobenzylsulfonyl)-3-((3-carboxyethyl-4-oxo-4,5,6,7-tetrahydro-1H-indol-2-yl)methylene)indolin-2-one], the inhibition at 0.5 µM worked out at 34.5% in test [1] and 62.8% in test [2]. Moreover, the inhibition at 1 µM in test [3] stood at 15.5%. The inhibition at 0.1 µM in test [4] is -2.1%.
For `O=C(O)CCc1c(/C=C2\C(=O)Nc3ccc(S(=O)(=O)Cc4c(Cl)cccc4Cl)cc32)[nH]c2c1C(=O)CCC2` [DCB-70073, (Z)-5-(2,6-dichlorobenzylsulfonyl)-3-((3-carboxyethyl-4-oxo-4,5,6,7-tetrahydro-1H-indol-2-yl)methylene)indolin-2-one], in that order: 29.3%, 91.6%, 9.4% and 1.4%.
For `CCOC(=O)CCc1c(/C=C2\C(=O)Nc3ccc(NC(=O)c4ccc(F)cc4)cc32)[nH]c2c1C(=O)CCC2` [DCB-70074, (Z)-5-(4-fluorobenzamido)-3-((3-(3-ethoxy-3-oxopropyl)-4-oxo-4,5,6,7-tetrahydro-1H-indol-2-yl)methylene)indolin-2-one], in that order: 6.6%, 21.5%, 15.1% and -1.3%.
A word on the IC50: it is the concentration at which inhibition is half-maximal. Low values mean greater potency in that assay, high ones weaker potency in that assay. On to `O=C(O)CCc1c(/C=C2\C(=O)Nc3cc(-c4ccc(O)cc4)ccc32)[nH]c2c1C(=O)CCC2` [DCB-70075, (Z)-6-(4-hydroxyphenyl)-3-((3-carboxyethyl-4-oxo-4,5,6,7-tetrahydro-1H-indol-2-yl)methylene)indolin-2-one], for which the inhibition at 0.5 µM turned out to be 94.1% in test [1] and 21.8% in test [2]. The compound also displayed an IC50 in test [3] of 456 nM. Also, the inhibition at 1 µM in test [3] is 55.8%. Further, the inhibition at 0.1 µM in test [4] was found to be 63.5%.
For `O=C(O)CCc1c(/C=C2\C(=O)Nc3ccc(NC(=O)c4ccc(F)cc4)cc32)[nH]c2c1C(=O)CCC2` [DCB-70076, (Z)-5-(4-fluorobenzamido)-3-((3-carboxyethyl-4-oxo-4,5,6,7-tetrahydro-1H-indol-2-yl)methylene)indolin-2-one], the inhibition at 0.5 µM in test [1] came out at 26.9%; in test [2], 21.8%. For the same compound, in test [3], the inhibition at 1 µM stood at 7.4%. Further, the inhibition at 0.1 µM in test [4] is -3.1%.
For `CCOC(=O)CCc1c(/C=C2\C(=O)Nc3cc(-c4ccc(O)c(O)c4)ccc32)[nH]c2c1C(=O)CCC2` [DCB-70077, (Z)-6-(3,4-dihydroxyphenyl)-3-((3-(3-ethoxy-3-oxopropyl)-4-oxo-4,5,6,7-tetrahydro-1H-indol-2-yl)methylene)indolin-2-one], in that order: 66.3%, 4.1%, 47.5% and 58.4%.
With `O=C(O)CCc1c(/C=C2\C(=O)Nc3cc(-c4ccc(O)c(O)c4)ccc32)[nH]c2c1C(=O)CCC2` [DCB-70078, (Z)-6-(3,4-dihydroxyphenyl)-3-((3-carboxyethyl-4-oxo-4,5,6,7-tetrahydro-1H-indol-2-yl)methylene)indolin-2-one], the inhibition at 0.5 µM is 85% in test [1] and -54.1% in test [2]. In addition, in test [3], the IC50 was 438 nM. The inhibition at 1 µM in test [3] came out at 63.4%. The inhibition at 0.1 µM in test [4] was determined as 75%.
In the case of `CCOC(=O)CCc1c(/C=C2\C(=O)Nc3cc(-c4cc5ccccc5s4)ccc32)[nH]c2c1C(=O)CCC2` [DCB-70079, (Z)-6-(benzo[b]thiophen-2-yl)-3-((3-(3-ethoxy-3-oxopropyl)-4-oxo-4,5,6,7-tetrahydro-1H-indol-2-yl)methylene)indolin-2-one], the inhibition at 0.5 µM in test [1] came to 9.6%; in test [2], 21.4%. In addition, in test [3], the inhibition at 1 µM is 16%. In test [4], the inhibition at 0.1 µM was found to be 1.1%.
For `O=C(O)CCc1c(/C=C2\C(=O)Nc3cc(-c4cc5ccccc5s4)ccc32)[nH]c2c1C(=O)CCC2` [DCB-70080, (Z)-6-(benzo[b]thiophen-2-yl)-3-((3-carboxyethyl-4-oxo-4,5,6,7-tetrahydro-1H-indol-2-yl)methylene)indolin-2-one], in that order: 56.7%, -21.3%, 35.2% and 7.4%.
For `CCOC(=O)CCc1c(/C=C2\C(=O)Nc3cc(-c4ccc(O)c(OC)c4)ccc32)[nH]c2c1C(=O)CCC2` [DCB-70081, (Z)-6-(4-hydroxy-3-methoxyphenyl)-3-((3-(3-ethoxy-3-oxopropyl)-4-oxo-4,5,6,7-tetrahydro-1H-indol-2-yl)methylene)indolin-2-one], in that order: 25.2%, 25.6%, 30.6% and 30%.
